# pIC50: −log10 of the molar value. Where two headings read alike, the source gives them in different places.
# Assays:
# CDK1/Cyclin E1 = CDK1/Cyclin E1 (Homo sapiens, UniProt P06493); experiment: NanoBRET live-cell target engagement, CDK1-NanoLuc/Cyclin E1 in HEK-293; assay type: binding; settings: CDK1/E1
# CDK2/Cyclin E1 = CDK2/Cyclin E1 (Homo sapiens, UniProt P24941); experiment: NanoBRET live-cell target engagement, CDK2-NanoLuc/Cyclin E1 in HEK-293; assay type: binding; settings: CDK2/E1; for pIC50: read-out: IC50
# CDK3/Cyclin E1 = CDK3/Cyclin E1 (Homo sapiens, UniProt Q00526); experiment: NanoBRET live-cell target engagement, CDK3-NanoLuc/Cyclin E1 in HEK-293; assay type: binding; settings: CDK3/E1
# Chain of CDK3/Cyclin E1 (Q00526 whole entry): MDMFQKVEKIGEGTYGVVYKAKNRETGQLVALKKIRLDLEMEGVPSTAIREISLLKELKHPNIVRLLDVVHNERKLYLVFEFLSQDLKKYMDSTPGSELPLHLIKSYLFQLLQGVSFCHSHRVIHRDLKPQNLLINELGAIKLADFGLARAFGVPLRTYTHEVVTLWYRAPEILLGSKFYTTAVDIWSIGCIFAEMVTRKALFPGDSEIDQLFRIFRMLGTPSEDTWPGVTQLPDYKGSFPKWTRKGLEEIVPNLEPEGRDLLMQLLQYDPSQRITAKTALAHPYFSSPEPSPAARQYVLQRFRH
# Chain of CDK3/Cyclin E1 (P24864 whole entry partner): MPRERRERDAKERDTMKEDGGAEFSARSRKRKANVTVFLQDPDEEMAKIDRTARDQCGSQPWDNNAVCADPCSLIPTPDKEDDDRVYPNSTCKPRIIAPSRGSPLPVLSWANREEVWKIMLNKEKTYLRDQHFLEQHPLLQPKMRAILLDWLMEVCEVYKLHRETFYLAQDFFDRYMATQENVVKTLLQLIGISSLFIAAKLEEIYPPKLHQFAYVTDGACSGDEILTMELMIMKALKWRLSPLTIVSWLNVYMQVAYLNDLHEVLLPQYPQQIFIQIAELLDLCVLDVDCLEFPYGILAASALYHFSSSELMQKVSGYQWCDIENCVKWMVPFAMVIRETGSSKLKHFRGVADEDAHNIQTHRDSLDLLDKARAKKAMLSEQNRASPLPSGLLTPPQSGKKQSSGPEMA
# CDK4/Cyclin D1 = CDK4/Cyclin D1 (Homo sapiens, UniProt P11802); experiment: NanoBRET live-cell target engagement, NanoLuc-CDK4/Cyclin D1 in HEK-293; assay type: binding; settings: CDK4/D1; for pIC50: read-out: IC50
# Chain of CDK4/Cyclin D1 (P11802 whole entry): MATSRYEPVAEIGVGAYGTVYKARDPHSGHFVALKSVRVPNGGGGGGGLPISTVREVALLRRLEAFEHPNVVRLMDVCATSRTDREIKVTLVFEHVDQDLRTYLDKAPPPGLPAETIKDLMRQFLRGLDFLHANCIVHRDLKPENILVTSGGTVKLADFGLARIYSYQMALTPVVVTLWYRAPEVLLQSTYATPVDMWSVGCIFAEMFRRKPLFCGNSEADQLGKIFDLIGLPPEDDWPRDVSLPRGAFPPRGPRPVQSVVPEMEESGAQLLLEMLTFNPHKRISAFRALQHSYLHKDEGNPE
# Chain of CDK4/Cyclin D1 (P24385 whole entry partner): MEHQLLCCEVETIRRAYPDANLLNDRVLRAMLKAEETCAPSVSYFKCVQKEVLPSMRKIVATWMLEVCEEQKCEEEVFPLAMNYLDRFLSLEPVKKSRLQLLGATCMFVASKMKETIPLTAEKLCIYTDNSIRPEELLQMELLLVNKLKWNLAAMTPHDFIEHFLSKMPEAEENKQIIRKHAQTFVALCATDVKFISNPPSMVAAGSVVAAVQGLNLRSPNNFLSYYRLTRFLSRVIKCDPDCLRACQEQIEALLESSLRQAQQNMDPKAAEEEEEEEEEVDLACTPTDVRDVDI
# CDK5/CDK5R1 = CDK5/CDK5R1 (Homo sapiens, UniProt Q00535); experiment: NanoBRET live-cell target engagement, CDK5-NanoLuc/CDK5R1 in HEK-293; assay type: binding; settings: CDK5/CDK5R1
# CDK7 = CDK7 (Homo sapiens, UniProt P50613); experiment: NanoBRET live-cell target engagement, NanoLuc-CDK7 in HEK-293; assay type: binding; settings: CDK7; for pIC50: read-out: IC50
# CDK8/Cyclin C = CDK8/Cyclin C (Homo sapiens, UniProt P49336); experiment: NanoBRET live-cell target engagement, NanoLuc-CDK8/Cyclin C in HEK-293; assay type: binding; settings: CDK8/C
# Chain of CDK8/Cyclin C (P49336 whole entry): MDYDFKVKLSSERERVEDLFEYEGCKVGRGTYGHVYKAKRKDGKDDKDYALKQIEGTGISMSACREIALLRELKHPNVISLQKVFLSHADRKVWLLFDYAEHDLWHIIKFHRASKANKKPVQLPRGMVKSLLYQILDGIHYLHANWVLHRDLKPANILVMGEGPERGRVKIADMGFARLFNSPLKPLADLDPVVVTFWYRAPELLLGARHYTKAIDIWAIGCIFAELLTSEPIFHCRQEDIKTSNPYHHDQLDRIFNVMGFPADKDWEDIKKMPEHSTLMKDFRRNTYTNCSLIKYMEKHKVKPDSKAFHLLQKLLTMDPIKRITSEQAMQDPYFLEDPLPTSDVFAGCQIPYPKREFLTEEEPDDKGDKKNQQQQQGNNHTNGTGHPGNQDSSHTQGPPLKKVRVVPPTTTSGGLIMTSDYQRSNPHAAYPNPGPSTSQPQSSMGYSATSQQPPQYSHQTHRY
# Chain of CDK8/Cyclin C (P24863 whole entry partner): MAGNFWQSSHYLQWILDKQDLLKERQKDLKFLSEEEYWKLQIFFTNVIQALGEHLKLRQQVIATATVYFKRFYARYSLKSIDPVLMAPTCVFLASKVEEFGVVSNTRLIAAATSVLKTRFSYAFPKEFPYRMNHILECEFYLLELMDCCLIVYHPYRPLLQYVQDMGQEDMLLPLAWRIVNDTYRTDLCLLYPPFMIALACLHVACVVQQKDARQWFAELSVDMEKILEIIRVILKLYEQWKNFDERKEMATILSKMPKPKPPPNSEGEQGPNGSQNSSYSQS
# CDK9/Cyclin K = CDK9/Cyclin K (Homo sapiens, UniProt P50750); experiment: NanoBRET live-cell target engagement, NanoLuc-CDK9/Cyclin K in HEK-293; assay type: binding; settings: CDK9/K
# Chain of CDK9/Cyclin K (P50750 whole entry): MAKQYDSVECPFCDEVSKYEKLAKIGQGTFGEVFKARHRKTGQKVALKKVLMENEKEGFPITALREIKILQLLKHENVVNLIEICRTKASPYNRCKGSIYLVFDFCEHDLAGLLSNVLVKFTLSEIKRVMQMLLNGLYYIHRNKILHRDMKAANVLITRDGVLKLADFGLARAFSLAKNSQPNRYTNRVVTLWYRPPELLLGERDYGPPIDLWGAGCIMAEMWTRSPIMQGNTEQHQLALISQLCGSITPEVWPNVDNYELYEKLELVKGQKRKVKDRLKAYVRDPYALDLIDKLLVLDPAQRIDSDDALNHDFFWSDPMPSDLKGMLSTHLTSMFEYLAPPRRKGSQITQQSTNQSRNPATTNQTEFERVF
# Chain of CDK9/Cyclin K (O75909 whole entry partner): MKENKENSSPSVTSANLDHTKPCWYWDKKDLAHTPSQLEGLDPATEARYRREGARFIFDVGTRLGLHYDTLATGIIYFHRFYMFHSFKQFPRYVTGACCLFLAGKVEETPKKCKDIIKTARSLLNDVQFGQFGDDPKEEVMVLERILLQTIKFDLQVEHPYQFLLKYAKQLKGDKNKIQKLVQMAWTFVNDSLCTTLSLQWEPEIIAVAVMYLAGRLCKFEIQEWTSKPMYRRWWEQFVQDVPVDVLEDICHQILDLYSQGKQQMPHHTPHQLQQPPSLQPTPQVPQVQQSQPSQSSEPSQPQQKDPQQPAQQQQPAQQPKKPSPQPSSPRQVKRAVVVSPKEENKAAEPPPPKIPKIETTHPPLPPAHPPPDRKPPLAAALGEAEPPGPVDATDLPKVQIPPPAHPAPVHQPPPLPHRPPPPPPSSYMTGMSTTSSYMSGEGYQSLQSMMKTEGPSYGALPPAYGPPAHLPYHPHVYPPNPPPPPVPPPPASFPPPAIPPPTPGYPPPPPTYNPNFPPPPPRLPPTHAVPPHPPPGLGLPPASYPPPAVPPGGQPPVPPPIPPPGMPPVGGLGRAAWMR
# CDK11A/Cyclin L2 = target: T1, CDK11A/Cyclin L2 (Homo sapiens, UniProt Q9UQ88); experiment: NanoBRET live-cell target engagement, CDK11A-NanoLuc/Cyclin L2 in HEK-293; assay type: binding; settings: CDK11a/L2; for pIC50: read-out: IC50
# T1 sequence (Q9UQ88 1-783): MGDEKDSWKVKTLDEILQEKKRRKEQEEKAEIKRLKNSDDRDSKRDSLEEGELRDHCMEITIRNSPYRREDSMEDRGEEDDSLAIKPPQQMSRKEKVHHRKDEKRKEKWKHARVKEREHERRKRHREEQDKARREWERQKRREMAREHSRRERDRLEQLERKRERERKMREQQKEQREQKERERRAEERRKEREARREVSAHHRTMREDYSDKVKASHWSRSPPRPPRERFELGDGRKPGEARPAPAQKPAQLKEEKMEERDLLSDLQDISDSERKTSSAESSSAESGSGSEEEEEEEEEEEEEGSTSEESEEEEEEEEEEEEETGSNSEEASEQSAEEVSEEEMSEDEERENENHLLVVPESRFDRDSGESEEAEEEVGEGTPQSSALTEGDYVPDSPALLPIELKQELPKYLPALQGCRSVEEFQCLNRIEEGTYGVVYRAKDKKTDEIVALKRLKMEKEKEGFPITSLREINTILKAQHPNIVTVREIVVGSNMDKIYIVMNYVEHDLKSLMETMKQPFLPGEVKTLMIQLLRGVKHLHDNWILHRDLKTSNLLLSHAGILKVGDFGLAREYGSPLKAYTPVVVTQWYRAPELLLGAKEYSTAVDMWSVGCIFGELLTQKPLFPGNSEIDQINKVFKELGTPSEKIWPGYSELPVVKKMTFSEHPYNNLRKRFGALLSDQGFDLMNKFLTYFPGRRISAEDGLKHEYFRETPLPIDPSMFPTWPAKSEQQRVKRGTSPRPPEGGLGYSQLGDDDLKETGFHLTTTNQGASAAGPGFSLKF
# CDK11B/Cyclin L2 = CDK11B/Cyclin L2 (Homo sapiens, UniProt P21127); experiment: NanoBRET live-cell target engagement, CDK11B-NanoLuc/Cyclin L2 in HEK-293; assay type: binding; settings: CDK11b/L2; for pIC50: read-out: IC50
# CDK12/Cyclin K = CDK12/Cyclin K (Homo sapiens, UniProt Q9NYV4); experiment: NanoBRET live-cell target engagement, CDK12-NanoLuc/Cyclin K in HEK-293; assay type: binding; settings: CDK12/K
# Chain of CDK12/Cyclin K (Q9NYV4 1-1481 isoform Q9NYV4-2): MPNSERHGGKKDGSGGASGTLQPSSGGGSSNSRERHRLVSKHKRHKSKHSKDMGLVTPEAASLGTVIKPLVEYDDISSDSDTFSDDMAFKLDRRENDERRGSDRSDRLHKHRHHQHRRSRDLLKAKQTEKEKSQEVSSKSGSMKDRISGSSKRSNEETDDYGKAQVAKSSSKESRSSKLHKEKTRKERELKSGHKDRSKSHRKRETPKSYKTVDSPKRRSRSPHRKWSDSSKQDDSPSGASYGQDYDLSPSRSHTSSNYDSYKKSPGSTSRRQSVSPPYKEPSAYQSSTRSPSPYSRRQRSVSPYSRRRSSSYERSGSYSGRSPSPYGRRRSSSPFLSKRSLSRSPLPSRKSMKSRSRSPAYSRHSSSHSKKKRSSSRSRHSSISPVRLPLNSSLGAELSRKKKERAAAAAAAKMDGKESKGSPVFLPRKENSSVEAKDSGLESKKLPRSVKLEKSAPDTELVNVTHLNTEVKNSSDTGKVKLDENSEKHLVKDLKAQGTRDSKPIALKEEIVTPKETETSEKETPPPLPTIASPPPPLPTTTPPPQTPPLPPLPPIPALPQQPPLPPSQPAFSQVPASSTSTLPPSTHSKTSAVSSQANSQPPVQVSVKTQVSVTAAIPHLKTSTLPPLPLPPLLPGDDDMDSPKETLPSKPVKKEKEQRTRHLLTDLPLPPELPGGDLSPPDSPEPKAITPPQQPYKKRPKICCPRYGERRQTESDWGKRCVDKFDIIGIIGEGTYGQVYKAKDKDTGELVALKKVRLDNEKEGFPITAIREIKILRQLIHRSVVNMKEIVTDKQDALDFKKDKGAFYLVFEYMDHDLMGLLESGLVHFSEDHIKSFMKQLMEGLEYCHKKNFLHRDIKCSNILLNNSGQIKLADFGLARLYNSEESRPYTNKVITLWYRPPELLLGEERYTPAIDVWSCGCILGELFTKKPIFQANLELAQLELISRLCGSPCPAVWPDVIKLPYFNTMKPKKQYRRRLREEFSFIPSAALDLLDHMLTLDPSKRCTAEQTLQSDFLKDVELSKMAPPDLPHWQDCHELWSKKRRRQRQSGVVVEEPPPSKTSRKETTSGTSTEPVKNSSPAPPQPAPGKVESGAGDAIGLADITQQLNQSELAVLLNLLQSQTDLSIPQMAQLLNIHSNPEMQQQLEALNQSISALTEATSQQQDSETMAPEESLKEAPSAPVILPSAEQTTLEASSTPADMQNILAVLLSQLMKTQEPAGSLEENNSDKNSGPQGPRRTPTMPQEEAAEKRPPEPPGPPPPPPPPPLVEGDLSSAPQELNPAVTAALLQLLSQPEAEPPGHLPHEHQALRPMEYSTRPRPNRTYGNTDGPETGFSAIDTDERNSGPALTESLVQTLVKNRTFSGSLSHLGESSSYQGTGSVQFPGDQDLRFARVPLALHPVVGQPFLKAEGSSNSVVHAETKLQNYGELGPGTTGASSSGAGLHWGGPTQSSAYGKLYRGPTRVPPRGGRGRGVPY
# Chain of CDK12/Cyclin K (O75909 whole entry partner): as the sequence (O75909 whole entry partner) above
# CDK13/Cyclin K = CDK13/Cyclin K (Homo sapiens, UniProt Q14004); experiment: NanoBRET live-cell target engagement, CDK13-NanoLuc/Cyclin K in HEK-293; assay type: binding; settings: CDK13/K
# CDK14/Cyclin Y = CDK14/Cyclin Y (Homo sapiens, UniProt O94921); experiment: NanoBRET live-cell target engagement, CDK14-NanoLuc/Cyclin Y in HEK-293; assay type: binding; settings: CDK14/Y; for pIC50: read-out: IC50
# CDK15/Cyclin Y = CDK15/Cyclin Y (Homo sapiens, UniProt Q96Q40); experiment: NanoBRET live-cell target engagement, NanoLuc-CDK15/Cyclin Y in HEK-293; assay type: binding
# CDK16/Cyclin Y = CDK16/Cyclin Y (Homo sapiens, UniProt Q00536); experiment: NanoBRET live-cell target engagement, CDK16-NanoLuc/Cyclin Y in HEK-293; assay type: binding; settings: CDK16/Y; for pIC50: read-out: IC50
# CDK17/Cyclin Y = CDK17/Cyclin Y (Homo sapiens, UniProt Q00537); experiment: NanoBRET live-cell target engagement, CDK17-NanoLuc/Cyclin Y in HEK-293; assay type: binding; settings: CDK17/Y; for pIC50: read-out: IC50
# CDK20/Cyclin H = CDK20/Cyclin H (Homo sapiens, UniProt Q8IZL9); experiment: NanoBRET live-cell target engagement, NanoLuc-CDK20/Cyclin H in HEK-293; assay type: binding; settings: CDK20/H
# CDK19/Cyclin C = CDK19/Cyclin C (Homo sapiens, UniProt Q9BWU1); experiment: NanoBRET live-cell target engagement, NanoLuc-CDK19/Cyclin C in HEK-293; settings: CDK19/C
# CDK10/Cyclin L2 = CDK10/Cyclin L2 (Homo sapiens, UniProt Q15131); experiment: NanoBRET live-cell target engagement, CDK10-NanoLuc/Cyclin L2 in HEK-293; settings: CDK10/L2
# Chain of CDK10/Cyclin L2 (Q15131 whole entry): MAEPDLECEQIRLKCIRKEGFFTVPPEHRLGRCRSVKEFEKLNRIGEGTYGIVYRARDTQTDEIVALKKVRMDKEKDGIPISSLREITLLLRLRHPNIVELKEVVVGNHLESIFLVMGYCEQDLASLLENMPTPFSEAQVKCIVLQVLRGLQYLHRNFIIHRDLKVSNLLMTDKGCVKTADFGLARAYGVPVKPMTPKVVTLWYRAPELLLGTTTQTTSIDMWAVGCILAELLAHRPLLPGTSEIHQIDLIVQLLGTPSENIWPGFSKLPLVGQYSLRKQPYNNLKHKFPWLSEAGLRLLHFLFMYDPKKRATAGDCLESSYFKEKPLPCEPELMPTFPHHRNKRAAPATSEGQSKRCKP
compound,measurement,setting,value
CC(C)c1c2cc(-c3ccnc(N[C@H]4CC[C@H](NC5CCOCC5)CC4)n3)ccc2nn1C [LY2857785],Inhibition at 10µM (%),CDK1/Cyclin E1; average,76.5%
same,Inhibition at 10µM (%),CDK1/Cyclin E1; experiment 1,76.1%
same,Inhibition at 10µM (%),CDK1/Cyclin E1; experiment 2,76.9%
same,Inhibition at 10µM (%),CDK2/Cyclin E1; average,85.9%
same,pIC50,CDK2/Cyclin E1; average (± SEM where n=3),6.18
same,Inhibition at 10µM (%),CDK2/Cyclin E1; experiment 1,85.1%
same,pIC50,CDK2/Cyclin E1; experiment 1,6.14
same,Inhibition at 10µM (%),CDK2/Cyclin E1; experiment 2,86.7%
same,pIC50,CDK2/Cyclin E1; experiment 2,6.23
same,Inhibition at 10µM (%),CDK3/Cyclin E1; average,89.1%
same,Inhibition at 10µM (%),CDK3/Cyclin E1; experiment 1,89.3%
same,Inhibition at 10µM (%),CDK3/Cyclin E1; experiment 2,88.9%
same,Inhibition at 10µM (%),CDK4/Cyclin D1; average,97.1%
same,pIC50,CDK4/Cyclin D1; average (± SEM where n=3),7.40
same,Inhibition at 10µM (%),CDK4/Cyclin D1; experiment 1,97.8%
same,pIC50,CDK4/Cyclin D1; experiment 1,7.36
same,Inhibition at 10µM (%),CDK4/Cyclin D1; experiment 2,96.5%
same,pIC50,CDK4/Cyclin D1; experiment 2,7.44
same,Inhibition at 10µM (%),CDK5/CDK5R1; average,68.7%
same,Inhibition at 10µM (%),CDK5/CDK5R1; experiment 1,68.7%
same,Inhibition at 10µM (%),CDK5/CDK5R1; experiment 2,68.7%
same,Inhibition at 10µM (%),CDK7; average,92.6%
same,pIC50,CDK7; average (± SEM where n=3),7.51
same,Inhibition at 10µM (%),CDK7; experiment 1,91.7%
same,pIC50,CDK7; experiment 1,7.55
same,Inhibition at 10µM (%),CDK7; experiment 2,93.4%
same,pIC50,CDK7; experiment 2,7.47
same,Inhibition at 10µM (%),CDK8/Cyclin C; average,83.7%
same,Inhibition at 10µM (%),CDK8/Cyclin C; experiment 1,88.4%
same,Inhibition at 10µM (%),CDK8/Cyclin C; experiment 2,79.0%
same,Inhibition at 10µM (%),CDK9/Cyclin K; average,97.9%
same,Inhibition at 10µM (%),CDK9/Cyclin K; experiment 1,98.0%
same,Inhibition at 10µM (%),CDK9/Cyclin K; experiment 2,97.9%
same,Inhibition at 10µM (%),CDK11A/Cyclin L2; average,95.5%
same,pIC50,CDK11A/Cyclin L2; average (± SEM where n=3),7.77
same,Inhibition at 10µM (%),CDK11A/Cyclin L2; experiment 1,95.3%
same,pIC50,CDK11A/Cyclin L2; experiment 1,8.00
same,Inhibition at 10µM (%),CDK11A/Cyclin L2; experiment 2,95.7%
same,pIC50,CDK11A/Cyclin L2; experiment 2,7.64
same,Inhibition at 10µM (%),CDK11B/Cyclin L2; average,94.8%
same,pIC50,CDK11B/Cyclin L2; average (± SEM where n=3),7.62
same,Inhibition at 10µM (%),CDK11B/Cyclin L2; experiment 1,95.7%
same,pIC50,CDK11B/Cyclin L2; experiment 1,7.68
same,Inhibition at 10µM (%),CDK11B/Cyclin L2; experiment 2,93.9%
same,pIC50,CDK11B/Cyclin L2; experiment 2,7.57
same,Inhibition at 10µM (%),CDK12/Cyclin K; average,43.6%
same,Inhibition at 10µM (%),CDK12/Cyclin K; experiment 1,48.1%
same,Inhibition at 10µM (%),CDK12/Cyclin K; experiment 2,39.1%
same,Inhibition at 10µM (%),CDK13/Cyclin K; average,26.3%
same,Inhibition at 10µM (%),CDK13/Cyclin K; experiment 1,28.2%
same,Inhibition at 10µM (%),CDK13/Cyclin K; experiment 2,24.3%
same,Inhibition at 10µM (%),CDK14/Cyclin Y; average,90.6%
same,pIC50,CDK14/Cyclin Y; average (± SEM where n=3),6.29
same,Inhibition at 10µM (%),CDK14/Cyclin Y; experiment 1,90.3%
same,pIC50,CDK14/Cyclin Y; experiment 1,6.41
same,Inhibition at 10µM (%),CDK14/Cyclin Y; experiment 2,90.9%
same,pIC50,CDK14/Cyclin Y; experiment 2,6.20
same,Inhibition at 10µM (%),"CDK15/Cyclin Y; CDK15/Y, average",93.6%
same,pIC50,"CDK15/Cyclin Y; CDK15/Y, average (± SEM where n=3), read-out: IC50",6.49
same,Inhibition at 10µM (%),"CDK15/Cyclin Y; CDK15/Y, experiment 1",93.4%
same,pIC50,"CDK15/Cyclin Y; CDK15/Y, experiment 1, read-out: IC50",6.49
same,Inhibition at 10µM (%),"CDK15/Cyclin Y; CDK15/Y, experiment 2",93.9%
same,pIC50,"CDK15/Cyclin Y; CDK15/Y, experiment 2, read-out: IC50",6.49
same,pIC50,"CDK15/Cyclin Y; live HEK-293, 2 h, mean ± S.E.M. (n=3) or mean (n=2), read-out: IC50 for CDK/cyclin complexes, CDK15/Y",6.49
same,pIC50,CDK16/Cyclin Y; average (± SEM where n=3),6.80
same,Inhibition at 10µM (%),CDK16/Cyclin Y; experiment 1,82.9%
same,pIC50,CDK16/Cyclin Y; experiment 1,6.66
same,Inhibition at 10µM (%),CDK16/Cyclin Y; experiment 2,91.1%
same,pIC50,CDK16/Cyclin Y; experiment 2,7.04
same,Inhibition at 10µM (%),CDK17/Cyclin Y; average,90.5%
same,pIC50,CDK17/Cyclin Y; average (± SEM where n=3),7.39
same,Inhibition at 10µM (%),CDK17/Cyclin Y; experiment 1,89.7%
same,pIC50,CDK17/Cyclin Y; experiment 1,7.82
same,Inhibition at 10µM (%),CDK17/Cyclin Y; experiment 2,91.4%
same,pIC50,CDK17/Cyclin Y; experiment 2,7.17
same,Inhibition at 10µM (%),CDK20/Cyclin H; experiment 1,39.4%
same,Inhibition at 10µM (%),CDK20/Cyclin H; experiment 2,39.8%
same,Inhibition at 10µM (%),CDK19/Cyclin C; average,82.9%
same,Inhibition at 10µM (%),CDK19/Cyclin C; experiment 1,90.1%
same,Inhibition at 10µM (%),CDK19/Cyclin C; experiment 2,75.7%
same,Inhibition at 10µM (%),CDK10/Cyclin L2; average,80.7%
same,pIC50,CDK10/Cyclin L2; average (± SEM where n=3),6.22
same,pIC50,CDK10/Cyclin L2; experiment 1,6.31
same,Inhibition at 10µM (%),CDK10/Cyclin L2; experiment 1,81.9%
same,pIC50,CDK10/Cyclin L2; experiment 2,6.15
same,Inhibition at 10µM (%),CDK10/Cyclin L2; experiment 2,79.4%

# Reference: PMC7265341, “Quantifying CDK inhibitor selectivity in live cells” (Nature Communications, 2020)
